Reference: patent US12458021B2, “Microbiocidal derivatives” (SYNGENTA CROP PROTECTION AG, priority 2019, dated 2025)

How the values were obtained:
[1] = system: Pyrenophora teres; assay: Pyrenophora teres / barley / leaf disc preventative (net blotch); type: in vivo; conditions: foliar, barley leaf segments cv. Hasso, inoculated 2 days after application, assessed 5-7 days after application, read-out: control of Pyrenophora teres (disease control compared to untreated)
Summary of the method: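 Barley cv. Hasso leaf discs on agar were sprayed with diluted formulated compound, then inoculated with spore suspension 2 days later. Incubation at 20 °C, 65% rh, 12 h light/dark; disease control versus untreated assessed 5-7 days after application.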

[2] = system: Magnaporthe grisea (Pyricularia oryzae); assay: whole plant or invertebrate; type: in vivo; conditions: foliar, read-out: control of Magnaporthe grisea (percent disease control compared to untreated)
[3] = system: Phaeosphaeria nodorum (Septoria nodorum); assay: Phaeosphaeria nodorum (Septoria nodorum) / wheat / leaf disc preventative (glume blotch); type: in vivo; conditions: Parastagonospora nodorum, foliar, wheat leaf segments cv. Kanzler, inoculated 2 days after application, assessed 5-7 days after application, read-out: control of Phaeosphaeria nodorum (percent disease control compared to untreated)
Summary of the method: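 Wheat cv. Kanzler leaf discs on agar were sprayed with formulated compound diluted in water and inoculated with spores 2 days later. Discs were kept at 20° C, 75% rh, 12 h light/dark; percent disease control versus untreated was scored 5-7 days after application.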

[4] = system: Sclerotinia sclerotiorum; assay: Sclerotinia sclerotiorum / liquid culture (cottony rot); type: cell-based; conditions: PDB potato dextrose broth, mycelia fragments, 24° C., 3-4 days after application, read-out: control of Sclerotinia sclerotiorum (inhibition of growth, photometric)
Description: Example B14: Sclerotinia sclerotiorum/Liquid Culture (Cottony Rot) Mycelia fragments of a newly grown liquid culture of the fungus are directly mixed into nutrient broth (PDB potato dextrose broth). After placing a (DMSO) solution of test compound into a microtiter plate (96-well format) the nutrient broth containing the fungal material is added. The test plates are incubated at 24° C. and the inhibition of growth is determined photometrically 3-4 days after application.

[5] = system: Blumeria graminis f. sp. tritici (Erysiphe graminis f. sp. tritici); assay: Blumeria graminis f. sp. tritici / wheat / leaf disc preventative (powdery mildew on wheat); type: in vivo; conditions: foliar, wheat leaf segments cv. Kanzler, inoculated 1 day after application, assessed 6-8 days after application, read-out: control of Blumeria graminis f. sp. tritici (percent disease control compared to untreated)
Text: Example B4: Blumeria graminis f. sp. tritici (Erysiphe graminis f. sp. tritici)/Wheat/Leaf Disc Preventative (Powdery Mildew on Wheat) Wheat leaf segments cv. Kanzler are placed on agar in a multiwell plate (24-well format) and sprayed with the formulated test compound diluted in water. The leaf disks are inoculated by shaking powdery mildew infected plants above the test plates 1 day after application. […] […]-192.

[6] = system: Glomerella lagenarium (Colletotrichum lagenarium); assay: Glomerella lagenarium (Colletotrichum lagenarium) / liquid culture (anthracnose); type: cell-based; conditions: Colletotrichum orbiculare, PDB potato dextrose broth, 24° C., 3-4 days after application, read-out: control of Glomerella lagenarium (inhibition of growth, photometric)
Summary of the method: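 Conidia from cryogenic storage suspended in potato dextrose broth and added to DMSO compound solution in plates. Incubated at 24° C; growth inhibition read photometrically 3-4 days after application.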

[7] = system: Alternaria solani; assay: Alternaria solani / tomato / leaf disc (early blight); type: in vivo; conditions: foliar, tomato leaf disks cv. Baby, inoculated 2 days after application, assessed 5-7 days after application, read-out: control of Alternaria solani (percent disease control compared to untreated)
Description: Example B1: Alternaria solani/Tomato/Leaf Disc (Early Blight) Tomato leaf disks cv. Baby are placed on agar in multiwell plates (24-well format) and sprayed with the formulated test compound diluted in water. The leaf disks are inoculated with a spore suspension of the fungus 2 days after application. The inoculated leaf disks are incubated at 23° C./21° C. […] […]-185.

[8] = system: Monographella nivalis (Microdochium nivale); assay: Monographella nivalis (Microdochium nivale) / liquid culture (foot rot cereals); type: cell-based; conditions: PDB potato dextrose broth, 24° C., 4-5 days after application, read-out: control of Monographella nivalis (inhibition of growth, photometric)
Summary of the method: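 Cryostored M. nivalis conidia mixed into potato dextrose broth and added to 96-well plates holding test compound in DMSO. Incubated at 24° C; growth inhibition read photometrically 4-5 days after application.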

[9] = system: Mycosphaerella arachidis (Cercospora arachidicola); assay: Mycosphaerella arachidis (Cercospora arachidicola) / liquid culture (early leaf spot); type: cell-based; conditions: PDB potato dextrose broth, 24° C., 4-5 days after application, read-out: control of Mycosphaerella arachidis (inhibition of growth, photometric)
Summary of the method: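 Conidia from cryogenic storage suspended in potato dextrose broth and added to compound in DMSO. Incubation at 24° C; growth inhibition read photometrically 4-5 days after application.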

[10] = system: Mycosphaerella graminicola (Septoria tritici); assay: Mycosphaerella graminicola (Septoria tritici) / liquid culture (Septoria blotch); type: cell-based; conditions: Zymoseptoria tritici, PDB potato dextrose broth, 24° C., 4-5 days after application, read-out: control of Mycosphaerella graminicola (inhibition of growth, photometric)
Summary of the method: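 Conidia from cryogenic storage were mixed into potato dextrose broth and added to test compound in DMSO. Plates were incubated at 24° C, and growth inhibition was read photometrically 4-5 days after application.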

[11] = system: Puccinia recondita f. sp. tritici; assay: Puccinia recondita f. sp. tritici / wheat / leaf disc preventative (brown rust); type: in vivo; conditions: foliar, wheat leaf segments cv. Kanzler, inoculated 1 day after application, assessed 7-9 days after application, read-out: control of Puccinia recondita f. sp. tritici, preventative (percent disease control compared to untreated)
Summary of the method: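 Wheat leaf segments (cv. Kanzler) on agar were sprayed with formulated compound, then inoculated with spores 1 day later. Segments were incubated at 19 °C, 75% rh with 12 h light/dark. Percent disease control versus untreated was scored 7–9 days after application.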

[12] = system: Puccinia recondita f. sp. tritici; assay: Puccinia recondita f. sp. tritici / wheat / leaf disc curative (brown rust); type: in vivo; conditions: foliar, wheat leaf segments cv. Kanzler, compound applied 1 day after inoculation, assessed 6-8 days after application, read-out: control of Puccinia recondita f. sp. tritici, curative (percent disease control compared to untreated)
Description: Example B10: Puccinia recondita f. sp. tritici/Wheat/Leaf Disc Curative (Brown Rust) Wheat leaf segments cv. Kanzler are placed on agar in multiwell plates (24-well format). The leaf segments are inoculated with a spore suspension of the fungus. Plates are stored in darkness at 19° C. and 75% rh. The formulated test compound diluted in water is applied 1 day after inoculation. […] […]-185.

[13] = system: Botryotinia fuckeliana (Botrytis cinerea); assay: Botryotinia fuckeliana (Botrytis cinerea) / liquid culture (gray mould); type: cell-based; conditions: Vogels broth, 24° C., 3-4 days after application, read-out: control of Botryotinia fuckeliana (inhibition of growth, photometric)
Summary of the method: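 Botrytis cinerea conidia in Vogels broth were added to compound supplied as DMSO solution. Plates were incubated at 24 °C, and growth inhibition was read photometrically 3-4 days after application.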

CCOc1ccc(Nc2cc(F)cc(F)c2)nc1C(=O)NC1CCC1(C)C (stereo not drawn) [Compound P-44, 6-(3,5-difluoroanilino)-N-(2,2-dimethylcyclobutyl)-3-ethoxy-pyridine-2-carboxamide]
≥ 80%: pest or weed control at 200 ppm [1] | pest or weed control at 200 ppm [2] | pest or weed control at 200 ppm [3] | inhibition at 20 ppm [4] | pest or weed control at 200 ppm [5] | inhibition at 20 ppm [6] | pest or weed control at 200 ppm [7] | inhibition at 20 ppm [8] | inhibition at 20 ppm [9] | inhibition at 20 ppm [10]

COc1ccc(Nc2cc(F)nc(F)c2)nc1C(=O)NC(C)(C)C [Compound P-91, N-tert-butyl-6-[(2,6-difluoro-4-pyridyl)amino]-3-methoxy-pyridine-2-carboxamide]
≥ 80%: pest or weed control at 200 ppm [2] | pest or weed control at 200 ppm [5] | inhibition at 20 ppm [6] | pest or weed control at 200 ppm [7] | pest or weed control at 200 ppm [11] | inhibition at 20 ppm [8] | inhibition at 20 ppm [10] | pest or weed control at 200 ppm [12]

COc1ccc(Nc2cc(F)nc(F)c2)nc1C(=O)NC1(C)CCC1 [Compound P-127, 6-[(2,6-difluoro-4-pyridyl)amino]-3-methoxy-N-(1-methylcyclobutyl)pyridine-2-carboxamide]
≥ 80%: pest or weed control at 200 ppm [1] | pest or weed control at 200 ppm [2] | pest or weed control at 200 ppm [5] | inhibition at 20 ppm [6] | pest or weed control at 200 ppm [7] | pest or weed control at 200 ppm [11] | inhibition at 20 ppm [8] | inhibition at 20 ppm [10] | pest or weed control at 200 ppm [12]

COc1ccc(Nc2cccc(F)c2)nc1C(=O)NCC(C)(C)C [Compound P-139, N-(2,2-dimethylpropyl)-6-(3-fluoroanilino)-3-methoxy-pyridine-2-carboxamide]
≥ 80%: pest or weed control at 200 ppm [1] | pest or weed control at 200 ppm [2] | pest or weed control at 200 ppm [3] | inhibition at 20 ppm [4] | pest or weed control at 200 ppm [5] | inhibition at 20 ppm [6] | pest or weed control at 200 ppm [7] | pest or weed control at 200 ppm [11] | inhibition at 20 ppm [8] | inhibition at 20 ppm [13] | inhibition at 20 ppm [9] | inhibition at 20 ppm [10]

COc1ccc(Nc2cc(F)c(F)c(F)c2)nc1C(=O)NCC(C)(C)C [Compound P-145, N-(2,2-dimethylpropyl)-3-methoxy-6-(3,4,5-trifluoroanilino)pyridine-2-carboxamide]
≥ 80%: pest or weed control at 200 ppm [1] | pest or weed control at 200 ppm [2] | pest or weed control at 200 ppm [3] | inhibition at 20 ppm [4] | pest or weed control at 200 ppm [5] | inhibition at 20 ppm [6] | pest or weed control at 200 ppm [7] | pest or weed control at 200 ppm [11] | inhibition at 20 ppm [8] | inhibition at 20 ppm [13] | inhibition at 20 ppm [9] | inhibition at 20 ppm [10]

COc1ccc(Nc2cc(F)cc(Cl)c2)nc1C(=O)NC(C)(C)C [Compound P-152, N-tert-butyl-6-(3-chloro-5-fluoro-anilino)-3-methoxy-pyridine-2-carboxamide]
≥ 80%: pest or weed control at 200 ppm [1] | pest or weed control at 200 ppm [2] | pest or weed control at 200 ppm [3] | inhibition at 20 ppm [4] | pest or weed control at 200 ppm [5] | inhibition at 20 ppm [6] | pest or weed control at 200 ppm [7] | pest or weed control at 200 ppm [11] | inhibition at 20 ppm [8] | inhibition at 20 ppm [13] | inhibition at 20 ppm [9] | inhibition at 20 ppm [10]

COc1ccc(Nc2ccnc(F)c2)nc1C(=O)NC(C)(C)C [Compound P-156, N-tert-butyl-6-[(2-fluoro-4-pyridyl)amino]-3-methoxy-pyridine-2-carboxamide]
≥ 80%: pest or weed control at 200 ppm [2] | pest or weed control at 200 ppm [5] | inhibition at 20 ppm [6] | pest or weed control at 200 ppm [11] | pest or weed control at 200 ppm [12]

COc1ccc(Nc2cc(F)cc(F)c2)nc1C(=O)NC1(C(C)(C)C)CCC1 [Compound P-180, N-(1-tert-butylcyclobutyl)-6-(3,5-difluoroanilino)-3-methoxy-pyridine-2-carboxamide]
≥ 80%: pest or weed control at 200 ppm [1] | pest or weed control at 200 ppm [2] | pest or weed control at 200 ppm [3] | inhibition at 20 ppm [4] | pest or weed control at 200 ppm [5] | inhibition at 20 ppm [6] | pest or weed control at 200 ppm [7] | pest or weed control at 200 ppm [11] | inhibition at 20 ppm [8] | inhibition at 20 ppm [9] | inhibition at 20 ppm [10]

COc1ccc(Nc2cc(F)nc(F)c2)nc1C(=O)NC1(C(C)(C)C)CCC1 [Compound P-185, N-(1-tert-butylcyclobutyl)-6-[(2,6-difluoro-4-pyridyl)amino]-3-methoxy-pyridine-2-carboxamide]
≥ 80%: pest or weed control at 200 ppm [1] | pest or weed control at 200 ppm [2] | pest or weed control at 200 ppm [5] | pest or weed control at 200 ppm [7] | pest or weed control at 200 ppm [11] | inhibition at 20 ppm [8] | inhibition at 20 ppm [10] | pest or weed control at 200 ppm [12]
